Work on `O=C1O[B-]2(OC1=O)OC(=O)C(=O)O2.[Li+]` yielded a solubility (mole fraction) (in DMF, 293.15 K) of 0.114, a solubility (mole fraction) (in DMF, 303.15 K) of 0.0838 and a solubility (mole fraction) (in DMF, 313.15 K) of 0.0658. For the same molecule, the solubility (mole fraction) (in DMF, 323.15 K) was 0.0542, the solubility (mole fraction) (in DMF, 333.15 K) was 0.0404 and the solubility (mole fraction) (in DMF, 343.15 K) was 0.0352. It also gave a solubility (mole fraction) (in DMF, 353.15 K) of 0.0323, a solubility (mole fraction) (in DMF, 363.15 K) of 0.023 and a solubility (mole fraction) (in DMSO, 293.15 K) of 0.148. It also gave a solubility (mole fraction) (in DMSO, 303.15 K) of 0.139, a solubility (mole fraction) (in DMSO, 313.15 K) of 0.127 and a solubility (mole fraction) (in DMSO, 323.15 K) of 0.113. For the same molecule, the solubility (mole fraction) (in DMSO, 333.15 K) was 0.0989, the solubility (mole fraction) (in DMSO, 343.15 K) was 0.0869 and the solubility (mole fraction) (in DMSO, 353.15 K) was 0.0774. For the same molecule, the solubility (mole fraction) (in DMSO, 363.15 K) was 0.0666, the solubility (mole fraction) (in THF, 293.15 K) was 0.0479 and the solubility (mole fraction) (in THF, 303.15 K) was 0.0336. It also gave a solubility (mole fraction) (in THF, 313.15 K) of 0.0269, a solubility (mole fraction) (in THF, 323.15 K) of 0.0217 and a solubility (mole fraction) (in THF, 333.15 K) of 0.0172. The solubility (mole fraction) (in acetonitrile, 293.15 K) was 0.00893, the solubility (mole fraction) (in acetonitrile, 303.15 K) was 0.00869 and the solubility (mole fraction) (in acetonitrile, 313.15 K) was 0.00803. It also gave a solubility (mole fraction) (in acetonitrile, 323.15 K) of 0.00653, a solubility (mole fraction) (in acetonitrile, 333.15 K) of 0.00566 and a solubility (mole fraction) (in acetonitrile, 343.15 K) of 0.00297. For the same molecule, the solubility (mole fraction) (in gamma-butyrolactone, 293.15 K) was 0.1, the solubility (mole fraction) (in gamma-butyrolactone, 303.15 K) was 0.0796 and the solubility (mole fraction) (in gamma-butyrolactone, 313.15 K) was 0.0544. For the same molecule, the solubility (mole fraction) (in gamma-butyrolactone, 323.15 K) was 0.0372, the solubility (mole fraction) (in gamma-butyrolactone, 333.15 K) was 0.0248 and the solubility (mole fraction) (in gamma-butyrolactone, 343.15 K) was 0.0163. It also gave a solubility (mole fraction) (in gamma-butyrolactone, 353.15 K) of 0.00786, a solubility (mole fraction) (in gamma-butyrolactone, 363.15 K) of 0.00503 and a solubility (mole fraction) (in propylene carbonate, 293.15 K) of 0.0393. For the same molecule, the solubility (mole fraction) (in propylene carbonate, 313.15 K) was 0.0312, the solubility (mole fraction) (in propylene carbonate, 323.15 K) was 0.0214 and the solubility (mole fraction) (in propylene carbonate, 333.15 K) was 0.0106. For the same molecule, the solubility (mole fraction) (in propylene carbonate, 343.15 K) was 0.00574, the solubility (mole fraction) (in propylene carbonate, 353.15 K) was 0.00218 and the solubility (mole fraction) (in propylene carbonate, 363.15 K) was 0.00132.

— BigSolDB 2.1
